Results on 79 molecules are retold here after the METLIN SMRT retention time set (Domingo-Almenara et al. 2019).

This data set in a line: gradient 5% acetonitrile 3 min, to 50% in 2 min, to 85% in 15 min, held 3 min, 100 µL/min. To be noted: column: Zorbax Extend-C18 2.1 x 50 mm; eluents: water / acetonitrile, 0.1% formic acid. The method, boiled down:
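A Zorbax Extend-C18 column (2.1 × 50 mm, 1.8 μm) run at 100 μL/min with water and acetonitrile, both containing 0.1% formic acid, separated mixtures of ~100 pure standards. The HPLC was coupled to a quadrupole time-of-flight mass spectrometer operated in positive and negative ionization mode, with dead and dwell volumes of 40 μL and 900 μL. Each retention time was taken from a computationally picked adduct peak that was then manually inspected.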
Molecule `O=C(NCC(O)c1cccc2ccccc12)NC1CCCCC1` (centres undefined) came in with an RP-LC retention time of 781 s.

In the case of `CCOC(=O)c1noc2ncnc(N(Cc3ccccc3)C(C)C)c12`, the RP-LC retention time turned out to be 1080 s.

Turning to `O=C(NC1CC1)c1ccc(OCC2CCCN(C(=O)c3ccc(F)cc3)C2)cc1` (centres undefined), the RP-LC retention time was found to be 803 s.

The molecule `Cc1cc(C)c(S(=O)(=O)N2CCCC2c2nncn2Cc2ccncc2)c(C)c1` (centres undefined) gave an RP-LC retention time of 617 s.

For `CC(C)c1cc(C(=O)NCc2ccco2)nc2cc(-c3ccccn3)nn12`, the RP-LC retention time worked out at 629 s.

Consider `COc1cc(C2CC(=O)c3c(C)nc(N4CCN(c5ccccn5)CC4)nc3C2)cc(OC)c1OC` (centres undefined), for which the RP-LC retention time is 678 s.

For `Cc1nnc(-c2ccc3ccn(CC(=O)Nc4ccc(Cl)cc4F)c3c2)o1`, the RP-LC retention time was determined as 887 s.

As to `CCS(=O)(=O)c1nc2ccc(NS(=O)(=O)c3ccccc3)cc2s1`, the RP-LC retention time was 838 s.

On to `COc1ccc(NC(=O)c2nnc(C(=O)NCCc3c[nH]c4ccc(OC)cc34)s2)cc1`, for which the RP-LC retention time turned out to be 951 s.

`CNC(=O)C1=CCN(C(=O)c2cc(C)cc(C)c2)CC1` gave an RP-LC retention time of 705 s.

Turning to `COc1ccc(CC(=O)N2C[C@@H]3C[C@H](NC(=O)c4ccccc4)[C@H]2C3)cc1Cl`, the RP-LC retention time is 794 s.

`CCCCSc1ncnc2[nH]ncc12` gave an RP-LC retention time of 919 s.

Molecule `CC(C)c1noc(-c2ccnc(-n3cnc(C(=O)NC(C)c4ccccc4)c3)c2)n1` (centres undefined) gave an RP-LC retention time of 1000 s.

In turn, `Cc1ccc(NC(=O)CN2C(=O)CCCc3cc(S(=O)(=O)N4CCCCC4)ccc32)cc1F` showed an RP-LC retention time of 953 s.

In turn, `CCCCC(=O)N1CCC2(C1)C(=O)N(C)c1ccccc12` (centres undefined) returned an RP-LC retention time of 743 s.

In turn, `COCC(=O)Nc1ccc2nc(-c3ccc(Cl)cc3)cc(OCC(=O)OC)c2c1` came in with an RP-LC retention time of 756 s.

Consider `CN1CCN(S(=O)(=O)c2ccc(Cl)c(-c3nnc(-c4ccccc4)o3)c2)CC1`, for which the RP-LC retention time came out at 681 s.

`CN(Cc1nc(-c2ccc(N3CCCCC3)nc2)no1)C1CCCCC1` registered an RP-LC retention time of 666 s.

The molecule `O=C(Nc1ccc2c(c1)CCC2)C1CCc2nc(N3CCOCC3)ncc2C1` (centres undefined) registered an RP-LC retention time of 793 s.

For the molecule `O=C(NCc1ccc(F)cc1F)C1CCN(c2ncnc3c2oc2ccccc23)CC1`, the RP-LC retention time worked out at 761 s.

The molecule `CN1C(=O)c2ccccc2Oc2ccc(C(=O)N3CCCC3)cc21` came in with an RP-LC retention time of 719 s.

For `Cc1ccc2c(c1)NC(=O)c1cc(NC(=O)c3ccccc3Br)ccc1O2`, the RP-LC retention time stood at 846 s.

For the molecule `CCc1nnc2ccc(-c3noc(Cc4cccc(Cl)c4)n3)cn12`, the RP-LC retention time came to 896 s.

In turn, `Cc1ccc(NC(=O)N2CCC(C(C)C(=O)Nc3ccc(C)c(C)c3)CC2)cc1` (centres undefined) showed an RP-LC retention time of 932 s.

In the case of `O=C(Cn1ccn2nc(-c3ccccc3)c(CO)c2c1=O)NCCC1=CCCCC1`, the RP-LC retention time turned out to be 857 s.

`COc1ccc(-c2nnc(CC(=O)NC3CC3)o2)cc1` gave an RP-LC retention time of 640 s.

For the molecule `Cc1ccc(CNC(=O)C2(C)CCN(C(=O)Nc3ccc(C)c(F)c3)CC2)cc1`, the RP-LC retention time is 914 s.

`CN(CC1CCOC1)C(=O)c1cc(F)cc(F)c1` (centres undefined) registered an RP-LC retention time of 690 s.

In turn, `CCc1cccc(NC(=O)Cn2c(=O)c3cc(C)nn3c3ncccc32)c1` registered an RP-LC retention time of 767 s.

Turning to `Cn1nccc1-c1cccc(-c2noc(-c3cc(F)ccc3F)n2)c1`, the RP-LC retention time amounted to 1100 s.

In turn, `O=C(Nc1nc(-c2ccc(Cl)cc2)cs1)c1cccc(-n2cnnc2)n1` gave an RP-LC retention time of 865 s.

For `COc1ccc(Cn2nc3ccc(S(=O)(=O)N4CCOCC4)cn3c2=O)cc1`, the RP-LC retention time came to 792 s.

In turn, `CCCCOC(=O)c1ccc(NC(=O)c2c(O)c3cccc4c3n(c2=O)CC4)cc1` returned an RP-LC retention time of 1070 s.

`CCOc1ccc(C(=O)NCc2nnc3n2CCCC3)cc1OCC`: the RP-LC retention time came out at 674 s.

The molecule `O=C(Cn1ccn2nc(-c3ccc(F)cc3)c(CO)c2c1=O)N1CCCC1` showed an RP-LC retention time of 683 s.

Regarding `CCn1cc(C(=O)Nc2ccc(F)c(F)c2)c(S(=O)(=O)N2CCC(C)CC2)n1`, the RP-LC retention time turned out to be 1170 s.

For the molecule `CCCCn1nc2ccc(S(=O)(=O)N3CCC(C)CC3)cn2c1=O`, the RP-LC retention time turned out to be 970 s.

Consider `CNC(=O)[C@H]1O[C@@H](n2cnc3c(NCc4cccc(I)c4)ncnc32)C(O)[C@H]1O` (some centres undefined), for which the RP-LC retention time amounted to 730 s.

In turn, `CCCNC(=O)C1CCN(c2ccc(SCC(=O)Nc3ccc(C)cc3)nn2)CC1` returned an RP-LC retention time of 645 s.

For `COc1ccc(-c2ccc3c(N4CCOCC4)nc(N4C[C@@H](C)O[C@@H](C)C4)nc3n2)cc1CO`, the RP-LC retention time is 698 s.

Take `CCn1c(=O)c(N2CCN(C(=O)Nc3ccc4c(c3)OCO4)CC2)nc2ccccc21`: the RP-LC retention time stood at 868 s.

Regarding `COc1ccc(OCc2nnc3sc(-c4ccc5c(c4)OCCO5)nn23)cc1`, the RP-LC retention time turned out to be 906 s.

Take `COCCNC(=O)c1ccc2c(c1)CCCN2S(=O)(=O)c1ccccc1`: the RP-LC retention time stood at 767 s.

For `Cc1ccc2[nH]cc(CCN3CC(C(=O)NC4CCCCCC4)CC3=O)c2c1` (centres undefined), the RP-LC retention time stood at 875 s.

`Cc1ccc(-c2noc(C(=O)N3CCOCC3)n2)cc1S(=O)(=O)N1CCN(c2ncccn2)CC1`: the RP-LC retention time worked out at 906 s.

Molecule `CC(C)c1noc(-c2cc(=O)n(CC(=O)Nc3ccc(F)c(F)c3)c3ccccc23)n1` returned an RP-LC retention time of 1040 s.

`CC(C)CC(=O)Nc1cc2c(cc1S(=O)(=O)c1ccc(F)cc1)n(C)c(=O)n2C` yielded an RP-LC retention time of 847 s.

In turn, `O=C(Nc1nc(CC(=O)N2CCCc3ccccc32)cs1)c1ccco1` showed an RP-LC retention time of 743 s.

As to `O=C(CN1C(=O)C2CCCCN2c2ccc(S(=O)(=O)N3CCCC3)cc21)NCC1COCCO1` (centres undefined), the RP-LC retention time came out at 736 s.

As to `CCn1cc2c3c(cccc31)CN(C(=O)CCc1ccccc1)CC2`, the RP-LC retention time was found to be 1050 s.

In turn, `Cc1sc(-c2nc(C(C)C)cs2)cc1S(=O)(=O)Nc1ccccc1F` displayed an RP-LC retention time of 1170 s.

On to `O=C(NC1CCN(c2cc(-c3ccc(F)cc3)[nH]n2)C1)c1ccc2c(c1)OCO2` (centres undefined), for which the RP-LC retention time came to 695 s.

In turn, `CC(C)Cn1c(=O)c(N2CCN(C(=O)NCc3ccco3)CC2)nc2ccncc21` displayed an RP-LC retention time of 616 s.

`COc1ccc(-c2cn3ccn(-c4ccc(C)cc4C)c(=O)c3n2)cc1OC` showed an RP-LC retention time of 797 s.

In turn, `CCNC(=O)N1CCc2c(c(-c3nc(-c4ccc(F)cc4)no3)nn2C)C1` came in with an RP-LC retention time of 788 s.

`O=C(CSc1nnc(CNC(=O)c2cccc(C(F)(F)F)c2)o1)NCC1CCCO1` (centres undefined) had an RP-LC retention time of 664 s.

The molecule `CC(=O)Nc1ccc(C(=O)NCc2cccs2)c(N2CCCCC2)c1` showed an RP-LC retention time of 676 s.

Take `Cn1ccnc1C(=O)N1CC(n2cc(COc3ccc(F)cc3)nn2)C1`: the RP-LC retention time worked out at 715 s.

As to `CCCCCNC(=O)c1sc2ncccc2c1-n1cccc1`, the RP-LC retention time is 1080 s.

`CCOc1ccccc1C(=O)N1CCc2c(c(-c3nc(C4CC4)no3)nn2C)C1` registered an RP-LC retention time of 828 s.

For the molecule `CN(C)c1nn(CC(=O)Nc2ccc(Br)cc2)c(=O)c2ccccc12`, the RP-LC retention time is 932 s.

In the case of `CCOC(=O)Cc1ccc(NC(=O)N2CCSc3nc(C)cc(C)c32)cc1`, the RP-LC retention time was found to be 735 s.

For the molecule `CCCN1C(=O)c2c(C(=O)Nc3ccccc3Cl)ncn2CC1(C)C(=O)NC1CCCC1` (centres undefined), the RP-LC retention time was found to be 822 s.

With `CN(C)S(=O)(=O)c1ccc(C(=O)N2CC(=O)Nc3ccc(Cl)cc3C2c2ccccc2)cc1` (centres undefined), the RP-LC retention time was 873 s.

Molecule `CCc1nccn1Cc1noc(-c2ccc(OC)cc2)n1` registered an RP-LC retention time of 626 s.

With `CCCn1c(=O)c(C)nc2cc(-c3noc(-c4cc(OC)cc(OC)c4)n3)ccc21`, the RP-LC retention time amounted to 1090 s.

The molecule `NC(=O)C1CCN(C(=O)Cc2csc(NC(=O)Nc3ccccc3)n2)CC1` returned an RP-LC retention time of 622 s.

Molecule `CC(C)NC(=O)c1cnn2c(-c3ccccn3)ccnc12` came in with an RP-LC retention time of 718 s.

For the molecule `COC(=O)CNC(=O)N1CCc2cc(-c3ccc(C(=O)N4CCOCC4)cc3)ccc21`, the RP-LC retention time was 635 s.

With `Cc1cc(OCC(=O)NCc2cccs2)nc(-c2ccc(F)cc2)n1`, the RP-LC retention time was found to be 885 s.

The molecule `CCN(C(=O)CN1C(=O)NC2(CCC(C)CC2)C1=O)c1cccc(C)c1` (centres undefined) returned an RP-LC retention time of 666 s.

`COc1ccc(C(=O)Nc2ccc3nc(N4CCN(C5CCCCC5)CC4)cc(C(=O)O)c3c2)cc1` came in with an RP-LC retention time of 614 s.

Molecule `CNC(=O)c1cc2c(s1)N(CC1CC1)CCCC2` displayed an RP-LC retention time of 889 s.

Take `Cc1ncsc1CN1CC(n2cc(C(=O)NCC3CC3)nn2)C1`: the RP-LC retention time was found to be 575 s.

Consider `Cc1nc2nc(-c3ccc(C(C)(C)C)cc3)nn2c(C)c1CC(=O)N(C)Cc1ccccc1`, for which the RP-LC retention time turned out to be 1110 s.

In the case of `CCCCNC(=O)CSc1nnc2c3cc(-c4ccccc4)nn3ccn12`, the RP-LC retention time worked out at 780 s.

In turn, `CCOc1ccc(-c2csc3c(=O)n(Cc4ccc(Br)cc4)cnc23)cc1OCC` showed an RP-LC retention time of 1210 s.

On to `Cc1ccccc1NC(=O)Cn1nc(N2CCC(C)CC2)c2ccccc2c1=O`, for which the RP-LC retention time is 1110 s.

For `CC(=O)Nc1cccc(C(C(F)(F)F)C(F)(F)F)c1`, the RP-LC retention time is 778 s.
